Results: patent publication US9132129B2, “Antiviral compounds” (KATHOLIEKE UNIVERSITEIT LEUVEN, priority 2010, dated 2015)

Assays:
Format in all cases: cell-based
HIV-1(NL4.3) = assay: MT4 based cytopathic effect assay (anti-HIV activity); settings: Human immunodeficiency virus 1, MT4; HIV-infected MT-4 cells, MTT, 50% protection
Procedure: MT4 based Cytopathic Effect Assay
(§1) A rapid and automated assay procedure was used for the in vitro evaluation of anti-HIV agents. An HTLV-1 transformed T4-cell line MT-4, which was previously shown to be highly susceptible to and permissive for HIV infection, served as the target cell line. Inhibition of the HIV-induced cytopathogenic effect was used as the end point. The viability of both HIV- and mock-infected cells was assessed spectrophotometrically via in situ reduction of 3-(4,5-dimethylthiazol-2-yl)-2,5-diphenyltetrazolium bromide (MTT). […] The percent protection achieved by the compound in HIV-infected cells was calculated by the following formula:
[formula] whereby (ODT)HIV is the optical density measured with a given concentration of the test compound in HIV-infected cells; (ODC)HIV is the optical density measured for the control untreated HIV-infected cells; (ODC)MOCK is the optical density measured for the control untreated mock-infected cells; all optical density values were determined at 540 nm. […] The ratio of CC50 to EC50 was defined as the selectivity index (SI).
(§2) Cells: MT-4 cells (Miyoshi et al., 1982) were grown and maintained in RPMI 1640medium supplemented with 10% heat-inactivated fetal calf serum, 2 mM I-glutamine, 0.1% sodium bicarbonate, and 20æg of gentamicin per ml.
Viruses: The HIV-1(NL4.3) strain (Adachi et al., 1986) is a molecular clone obtained from the National Institutes of Health (Bethesda, Md.).

[1] = MT4 cytotoxicity in mock-infected cells (MTT); settings: human, mock-infected MT-4 cells
Procedure: as §1, with “formula: […]” for “formula:”
Examples of inhibition of cell proliferation by particular compounds of the invention can be found by looking at the respective CC50 values in the MT-4 cell line.
as §2

in vitro = settings: human
Procedure: The MT-2 based antiviral assay requires a separate cytotoxicity assessment of the compounds. This was performed using a 3 day MT-2 cytotoxicity assay as follows:
3 Day MT2 Cytotoxicity Assay (S8738E)
The assay is designed to test whether or not compounds have cytotoxic activity in MT2 cells by measuring the viability of these cells in the presence of compounds. The assay is carried out by adding MT2 assay plates containing serial dilutions of the compounds to be screened. After 3 days incubation, the viability of the cells remaining in the plates is assayed using the commercially available reagent CellTiter-Glo (Promega Ltd).

[2] = system: HIV-1 virus (NL4.3 strain); assay: MT-2 based antiviral assay (S8737E); settings: Human immunodeficiency virus 1, 72 h; MT2 cells, 3 days, JC53BL β-Gal reporter readout
From the text: MT-2 Based Antiviral Assay (S8737E)
Much like the MT-4 based cytopathic effect assay, this assay is designed to determine the effects of small molecules on the replication of HIV-1 in the lymphobastoid cell line, MT2, and is able to detect the antiviral effect of compounds acting at any stage of the HIV-1 replication cycle. The assay, along with its associated cytotoxicity assay, was described in detail in 2005 in a paper by Cao et al (Antimicrobial Agents and Chemotherapy 2005; 49(9), p 3833-3841).
Briefly; MT2 cells are infected with the HIV-1 virus (NL4.3 strain) and transferred to assay plates containing serial dilutions of compounds to be tested. The assay plates are incubated for 3 days (MT2) to allow for several rounds of viral replication/infection to take place. At the end of this time, supernatant is transferred into new plates containing JC53BL cells.
JC53BL cells express CXCR4, CCR5 and CD4 receptors, and HIV-1-LTR-β-Gal. Under normal culture conditions undetectable levels of β-Galactosidase are expressed, but in the presence of HIV-1, the viral Tat protein is able to activate the HIV-1-LTR in the JC53BL cells resulting in the increased expression of the β-Gal enzyme. The expression can be measured using the ‘FluorAce β-Galactosidase reporter’ assay. The levels of β-Gal are directly proportional to the levels of Tat (up to a threshold) allowing virus quantification. Compounds that inhibit virus replication will give rise to a reduced signal and a dose-response curve for each compound can be generated. This is then used to determine the IC50 for each compound, a measure of the compound's potency, in a manner similar to the MT-4 based cytopathic effect assay.

Row | SMILES | EC50 (HIV-1(NL4.3)) [µM] | CC50 [1] [µM] | CC50 at 3 days (in vitro) [µM] | EC50 [2] [µM]
1 | CCCC(C(=O)O)c1c(C)nc2cc3c(cc2c1-c1ccc(C)cc1)CCCC3 (centres unmarked) [Cpd001, 2-(-2-methyl-4-p-tolyl-6,7,8,9-tetrahydrobenzo[g]quinolin-3-yl)pentanoic acid] | 1.45 | 92 |  | 
2 | Cc1ccc(-c2c(C(OC(C)(C)C)C(=O)O)c(C)nc3cc4c(cc23)CCCC4)cc1 (centres unmarked) [Cpd002, tert-butoxy-(2-methyl-4-p-tolyl-6,7,8,9-tetrahydro-benzo[g]quinolin-3-yl)-acetic acid] |  |  | > 10 | 0.46
3 | CCCC(C(=O)O)c1c(C)nc2ccc3c(c2c1-c1ccc(C)cc1)CCCC3 (centres unmarked) [Cpd003, 2-(3-methyl-1-4-p-tolyl-7,8,9,10-tetrahydrobenzo[f]quinolin-2-yl)pentanoic acid] | 1.45 | 92 |  | 
4 | CCCC(C(=O)O)c1c(C)nc2cc3c(cc2c1-c1ccc(C)cc1)CCC3 (centres unmarked) [Cpd012, 2-(2-methyl-4-p-tolyl-7,8-dihydro-6H-cyclopenta[g]quinolin-3-yl)pentanoic acid] | 0.53 | 82 | > 20 | 1.68
5 | CCCC(C(=O)O)c1c(C)nc2ccc3c(c2c1-c1ccc(C)cc1)CCC3 (centres unmarked) [Cpd023, 2-(3-methyl-1-p-tolyl-8,9-dihydro-7H-cyclopenta[f]quinolin-2-yl)pentanoic acid] | 4.5 | 114 |  | 
6 | CCCC(C(=O)O)c1c(C)nc2c3ccccc3nn2c1-c1ccc(C)cc1 (centres unmarked) [Cpd047, 2-(2-methyl-4-p-tolylpyrimido[1,2-b]indazol-3-yl)pentanoic acid] |  | 200 |  | > 20
